Assay results taken from patent US20060247156A1, “Use of neuropeptides for ligament, cartilage, and bone healing” (priority 2004, published 2006).
Several values for one entry are separate records, joined by “and”; a condition that tells them apart may be missing. Equal entries are not always repeated.

What was measured:
[1] = system: bovine articular chondrocytes; assay: Bovine chondrocytes proliferation assay (CellTiter 96 AQueous One); assay type: cell-based; conditions: CGRP 100 pg/ml, NPY 50 ng/ml, SP 500 pg/ml, VIP 1 ng/ml
Experimental: (§1) Cartilage chunks were then digested at 37° C. in DMEM containing 0.05% hyaluronidase for 30 minutes, followed by 0.05% collagenase digestion overnight. The digests were filtered through 40-micron nylon mesh and centrifuged at 600×g for 20 minutes. The cell pellets were then resuspended in DMEM and counted using a hemacytometer.
(§2) Cells were plated at 1×10^5 cells/well in 12-well plates (n=9) for proteoglycan assays and at 2×10^4 cells/well in 96-well plates (n=16) for proliferation assays. The culture volumes were 1 ml/well in 12-well plates and 100 μl/well in 96-well plates.
(§3) The plates were incubated at 37° C. in a humidified CO2 incubator for 3 days to allow the cells to recover from the harvesting procedure.
(§4) On Day 3 of treatment, 20 μl of CellTiter 96® AQueous One Solution Cell Proliferation Assay (Promega Corporation, Madison, Wis.) was added to each well of the 96-well cultures for 60 minutes, and cells in the 12-well plates were digested with 0.125 units of papain/well overnight. After the 60-minute incubation, the absorbance of the color generated by the cells in the 96-well plates was measured at wavelength 490 nm.

[2] = system: Bovine nucleus pulposus cells; assay: Bovine nucleus pulposus (intervertebral disc) cell proliferation; assay type: cell-based; conditions: day 1, day 2, day 3
Experimental: Bovine calf spines and femoral condyles were obtained from a slaughterhouse and freshly transported to the laboratory. Nucleus pulposus tissue was carefully dissected, avoiding annular and endplate cartilage tissues, from each disc. Articular cartilage from femoral condyles was dissected in the same manner. […] Cells were harvested by overnight digestion with hyaluronidase and collagenase, followed by filtration. Cells were plated at a density of 1×10^5 cells/ml and incubated at 37° C. in 5% CO2 and 95% air in the presence of each neuropeptide or media only (control). At various time points in growth, cells were collected for proliferation and glycosaminoglycan (GAG) production assays. Varying concentrations of NPs were examined.
Well established colorimetric and luminescent assays (CellTiter 96® AQueous Non-radioactive Cell Proliferation and CellTiter-Glo® Luminescent Cell Viability Assays, Promega, Madison, Wis.) were used to quantify the effect of each NP on cell proliferation. In addition, corresponding cell cultures during growth were digested with papain to release glycosaminoglycans (GAGs). Dimethyl methylene blue (DMMB) colorimetric assays were used to quantify the amount of GAGs in each culture.
Multiple samples for test and control groups were performed simultaneously. Statistical analyses using one way analysis of variance (ANOVA) with large degrees of freedom (n=12 for GAG assays; n=24 for proliferation assays) were performed to establish the significance of differences between test groups and control groups for each day of growth in culture.
The effect of neuropeptides on intervertebral disc cell proliferation was examined in order to elucidate further the pathophysiology of degenerative disc disease. Bovine nucleus pulposus cells were incubated with the same neuropeptides.

[3] = system: bovine articular chondrocytes; assay: Bovine chondrocytes glycosaminoglycan assay (DMMB); assay type: cell-based; conditions: Day 3 of treatment, individual wells
Experimental: as §1, §2, §3, §4
Following papain digestion of the cultures in 12-well plates, the amount of glycosaminoglycan (representative of proteoglycans) in each well was measured using the dimethylmethylene blue (DMMB) dye-binding assay. The results were statistically analyzed and plotted.

healing MCL = assay: Local neuropeptide delivery to normally innervated healing MCL: mechanical testing, histomorphology; assay type: in vivo, rat; conditions: for histomorphology (H&E) of healing MCL: Example 7, two weeks of healing; for failure force / ultimate stress: Example 7: normally innervated rats, bilateral MCL rupture, mini-osmotic pump (SP 75, CGRP 10, NPY 65, VIP 100 pg/100 μl)
Experimental: Animal Model and Surgery: Forty female Wistar rats (200-250 g) were divided into five groups.
All rats underwent bilateral MCL rupture. Neuropeptides were then delivered ruptured MCLs unilaterally. Neuropeptide infused mini-osmotic pumps (Alzet Corp.) were implanted subcutaneously into the back of each rat. A small catheter running from the pump was run to an intramuscular space above the MCL and was secured.
Mechanical Testing: Mechanical testing was performed as described in Chapter 2. Briefly, animal hind limbs from all groups (n=5 for all groups) were disarticulated at the hip joint and stored at −80° C. until testing. On the day of testing, MCLs including intact femoral and tibial bone sections were excised for ex vivo testing. Ligament thickness and width was measured optically, and MCL area was estimated with elliptical geometry. For strain measurements, optical markers were placed onto the ligament tissue near the insertion sites. A small preload of 0.1N was applied to the ligaments in order to obtain a uniform starting point. The ligaments were then preconditioned to 1% strain for 10 cycles. After preconditioning, ligaments were pulled to failure at a rate of 10% per second.
Tissue displacement was obtained using video dimensional analysis using equations (1) and (2) supra. The mechanical properties that were examined in this study were maximum force, ultimate stress, strain at failure, elastic modulus, and area. Statistical analysis was performed using paired ttests to compare each treated MCL to its contralateral control (alpha=0.05).
Ligaments were immediately fixed in formalin fixative for three days at room temperature. Specimens were embedded in paraffin, sectioned (6 μm), mounted on slides, and stained with hematoxylin and eosin (H&E).

Substance: Substance P [SP]
- proliferation of articular chondrocytes compared to controls (in words) [1]: stimulate proliferation
- disc cell proliferation compared to controls ([2]; CGRP 10 ng/ml, NPY (mcg/ml, SP 5 mcg/ml)): stimulate disc cell proliferation
- Glycosaminoglycan Assay ([3]; SP 500 pg/ml): 8.6 μg/dish and 9.1 μg/dish and 8.373 μg/dish and 7.011 μg/dish and 6.556 μg/dish and 7.192 μg/dish and 7.238 μg/dish and 7.283 μg/dish and 8.01 μg/dish
- histomorphology (H&E) of healing MCL (healing MCL): greatly improved tissue alignment
- healed MCL strength relative to intact MCL strength (healing MCL; Example 7: SP, two weeks of healing): 60%
- failure force (healing MCL; two weeks of healing): no change
- ultimate stress (healing MCL; two weeks of healing): 13.4±8.9 MPa

Substance: vasoactive intestinal peptide [VIP]
- proliferation of articular chondrocytes compared to controls (in words) [1]: stimulate proliferation
- disc cell viability ([2]; VIP 100 ng/ml): negative influence
- Glycosaminoglycan Assay ([3]; VIP 1 ng/ml): 7.419 μg/dish and 5.966 μg/dish and 6.874 μg/dish and 6.42 μg/dish and 6.965 μg/dish and 3.785 μg/dish and 6.147 μg/dish and 6.511 μg/dish and 8.328 μg/dish
- histomorphology (H&E) of healing MCL (healing MCL): greatly improved tissue alignment
- failure force (healing MCL; two weeks of healing): 10.2±3.0 N
- ultimate stress (healing MCL; two weeks of healing): 5.1±1.6 MPa
